Data on twelve molecules can be found in patent publication US20050288307A1, “Anti-viral compounds” (priority 2002, published 2005).

For one series, the target named is CDK4/Cyclin D1 (Homo sapiens, UniProt P11802). As to the kind of experiment: CDK4/cyclin D1 kinase assay (GST-Rb phosphorylation). The format is biochemical.
The next series deals with HIV-1RoJo/PBMC. As to the kind of experiment: Anti-HIV efficacy in fresh human PBMCs, strain RoJo. Type of series: cell-based. Conditions: HIV-1RoJo/PBMC; for IC50: Human immunodeficiency virus 1, read-out: IC50 (concentration inhibiting virus replication by 50%); for IC90: Human immunodeficiency virus 1, read-out: IC90 (concentration inhibiting virus replication by 90%). As for the experimental part:
Fresh PBMCs, seronegative for HIV and HBV, were isolated from screened donors (Interstate Blood Bank, Inc. Memphis, Tenn.). Cells were pelleted/washed 2-3 times by low speed centrifugation and re-suspension in PBS to remove contaminating platelets. […] Banded PBMCs were gently aspirated from the resulting interface and subsequently washed with PBS by low speed centrifugation. […] The cells were allowed to incubate at 37° C. […] IL-2 is included in the culture medium to maintain the cell division initiated by the PHA mitogenic stimulation. PBMCs were maintained in this with bi-weekly medium changes until used in the assay protocol. Cells were kept in culture for a maximum of two weeks before being deemed too old for use in assays and discarded. Monocytes were depleted from the culture as the result of adherence to the tissue culture flask.
Tritiated thymidine triphosphate (^3H-TTP, 80 Ci/mmol, NEN) was received in 1:1 dH2O:Ethanol at 1 mCi/mL. Poly rA:oligo dT template:primer (Pharmacia) was prepared as a stock solution, followed by aliquoting and storage at −20° C. The RT reaction buffer was prepared fresh on a daily basis. The final reaction mixture was prepared by combining ^3H-TTP, dH2O, poly rA:oligo dT stock and reaction buffer. This reaction mixture was placed in a round bottom microtiter plate and supernatant containing virus was added and mixed. The plate was incubated at 37° C. for 60 minutes. Following incubation, the reaction volume was spotted onto DE81 filter-mats (Wallac), in a sodium phosphate buffer or 2×SSC (Life Technologies). Next they were washed in distilled water, in 70% ethanol, and then dried. Incorporated radioactivity (counts per minute, CPM) was quantified using standard liquid scintillation techniques.

The target in the next series is CDK7/cyclin H (Homo sapiens, UniProt P50613). As to the kind of experiment: CDK7 assay (CTD peptide substrate). The format is biochemical. As to the method: CTD peptide substrate (biotinyl-Ahx-(Tyr-Ser-Pro-Thr-Ser-Pro-Ser)4-NH2; 1-2 mg/mL) and recombinant human CDK7/cyclin H, CDK9/cyclin T1, or CDK9/cyclin K (0.5-2 μg) were incubated for 45 min at 30° C. in the presence of varying amounts of test compound in 20 mM MOPS pH 7.2, 25 mM β-glycerophosphate, 5 mM EGTA, 1 mM DTT, 1 mM sodium vanadate, 15 mM MgCl2, and 100 μM ATP (containing a trace amount of ^32PγATP) in a total volume of 25 μL in a 96-well microtiter plate. The reaction was stopped by placing the plate on ice for 2 min. Avidin (50 μg) was added to each well, and the plate was incubated at room temp for 30 min. The samples were transferred to a 96-well P81 filter plate, and washed (4×200 μL per well) with 75 mM phosphoric acid. Microscint 40 scintillation liquid (50 μL) was added to each well, and the amount of ^32P incorporation for each sample was measured using a Packard Topcount microplate scintillation counter.
Sequence of CDK7/cyclin H (P50613 whole entry): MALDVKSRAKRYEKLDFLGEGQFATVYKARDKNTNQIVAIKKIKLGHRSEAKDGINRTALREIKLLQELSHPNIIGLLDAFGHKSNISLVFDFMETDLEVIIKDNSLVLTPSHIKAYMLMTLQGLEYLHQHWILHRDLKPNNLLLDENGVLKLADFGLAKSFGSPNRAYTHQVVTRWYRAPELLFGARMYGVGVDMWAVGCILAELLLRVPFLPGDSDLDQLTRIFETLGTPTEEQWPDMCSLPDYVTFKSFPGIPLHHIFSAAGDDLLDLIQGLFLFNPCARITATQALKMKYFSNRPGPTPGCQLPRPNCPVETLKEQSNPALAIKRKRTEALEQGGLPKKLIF
Sequence of CDK7/cyclin H (P51946 whole entry partner): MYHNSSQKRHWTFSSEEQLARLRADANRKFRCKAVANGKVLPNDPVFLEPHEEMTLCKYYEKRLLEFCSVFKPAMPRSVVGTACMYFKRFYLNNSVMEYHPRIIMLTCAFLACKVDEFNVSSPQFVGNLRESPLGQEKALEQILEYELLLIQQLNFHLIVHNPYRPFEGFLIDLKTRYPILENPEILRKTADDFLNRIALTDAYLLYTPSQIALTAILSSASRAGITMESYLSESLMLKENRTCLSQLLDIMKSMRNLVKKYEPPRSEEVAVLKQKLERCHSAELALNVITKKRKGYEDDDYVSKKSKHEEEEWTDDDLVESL

The test system of another series is HIV-1. Put plainly: Anti-viral cell-based assays. Particulars: result in words.
The target in a further series is T1, CDK2/Cyclin E (Homo sapiens, UniProt P24941).
T1 construct: His; made in house; host or cells: Sf9 insect cells (baculovirus)
Put plainly: CDK2/cyclin E kinase assay (GST-Rb phosphorylation).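 Note: enzyme source: His-tagged CDK2/cyclin E complex co-expressed recombinantly in Sf9 insect cells using baculovirus constructs.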 Type of series: biochemical.

The next series deals with CDK9/cyclin T1 (Homo sapiens, UniProt P50750). As to the kind of experiment: CDK9 assay (CTD peptide substrate). The format is biochemical. In a few lines:
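Recombinant human CDK7/cyclin H or CDK9/cyclin T1 with biotinylated CTD peptide, 45 min at 30 °C, pH 7.2 MOPS buffer, 15 mM MgCl2, 100 μM ATP with trace [γ-32P]ATP. Avidin capture on P81 filters, phosphoric acid washes, 32P incorporation by scintillation counting.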

The target in the next series is CDK1/Cyclin B (Homo sapiens, UniProt P06493). As to the kind of experiment: CDK1/cyclin B kinase assay (GST-Rb phosphorylation).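 Note: Enzyme: His-tagged CDK1/Cyclin B co-expressed in baculovirus-infected Sf9 insect cells, purified via metal-chelate chromatography.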
Sequence of CDK1/Cyclin B (P06493 whole entry, species assumed): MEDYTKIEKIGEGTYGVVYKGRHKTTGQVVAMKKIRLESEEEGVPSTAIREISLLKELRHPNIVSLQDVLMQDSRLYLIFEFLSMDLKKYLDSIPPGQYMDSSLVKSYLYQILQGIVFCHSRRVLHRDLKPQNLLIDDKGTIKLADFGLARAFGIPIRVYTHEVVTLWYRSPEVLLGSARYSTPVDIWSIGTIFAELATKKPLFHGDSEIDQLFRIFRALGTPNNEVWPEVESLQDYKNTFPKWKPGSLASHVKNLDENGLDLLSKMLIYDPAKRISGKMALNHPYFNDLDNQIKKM
Sequence of CDK1/Cyclin B (P14635 whole entry partner, species assumed): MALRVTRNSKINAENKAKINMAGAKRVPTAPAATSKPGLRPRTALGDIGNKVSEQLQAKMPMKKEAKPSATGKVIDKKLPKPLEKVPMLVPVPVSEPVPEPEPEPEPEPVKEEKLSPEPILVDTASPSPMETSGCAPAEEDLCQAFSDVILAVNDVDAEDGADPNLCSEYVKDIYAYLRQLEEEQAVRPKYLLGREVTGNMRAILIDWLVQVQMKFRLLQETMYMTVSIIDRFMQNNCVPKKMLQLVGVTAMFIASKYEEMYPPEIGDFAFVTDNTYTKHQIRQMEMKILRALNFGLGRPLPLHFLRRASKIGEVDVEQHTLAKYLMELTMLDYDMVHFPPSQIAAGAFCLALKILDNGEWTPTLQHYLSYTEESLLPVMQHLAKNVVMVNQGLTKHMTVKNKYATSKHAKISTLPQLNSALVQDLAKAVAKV
The nature of series [1]: Compound cytotoxicity in PBMC assay plates (MTS cell viability). Particulars: human, TC50 (concentration decreasing cell viability by 50%).
For a further series, the target named is CDK2/cyclin A (Homo sapiens, UniProt P24941). As to the kind of experiment: CDK2/cyclin A kinase assay.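 Note: Read-out is incorporated radioactivity retained on P81 filter plates and quantified by scintillation counting.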 The format is biochemical.
Where [2] appears, read: Table 3, read-out: Average IC50 CDK4 cyclin D1.
Setting [3] is: Table 3, read-out: Average IC50 CDK7 cyclin H.
Where [4] appears, read: Table 3, read-out: Average IC50 CDK2 cyclin E1.
Setting [5] is: Table 3, read-out: Average IC50 CDK9 cyclin T1.
Setting [6] is: Table 3, read-out: Average IC50 CDK2 cyclin A2.
[7] abbreviates: Table 4, read-out: Kinase Inhibition IC50 CDK4-cyclin D1.
Where [8] appears, read: Table 4, read-out: Kinase Inhibition IC50 CDK2-cyclin A.
Where [9] appears, read: Table 4, read-out: Kinase Inhibition IC50 CDK7-cyclin H.
Setting [10] is: Table 4, read-out: Kinase Inhibition IC50 CDK2-cyclin E.
[11] abbreviates: Table 4, read-out: Kinase Inhibition IC50 CDK9-cyclin T1.

The structures appear in SMILES notation. Like-named read-outs stand apart in the source and are kept apart here.

Sequence of CDK4/Cyclin D1 (P11802 whole entry, species assumed): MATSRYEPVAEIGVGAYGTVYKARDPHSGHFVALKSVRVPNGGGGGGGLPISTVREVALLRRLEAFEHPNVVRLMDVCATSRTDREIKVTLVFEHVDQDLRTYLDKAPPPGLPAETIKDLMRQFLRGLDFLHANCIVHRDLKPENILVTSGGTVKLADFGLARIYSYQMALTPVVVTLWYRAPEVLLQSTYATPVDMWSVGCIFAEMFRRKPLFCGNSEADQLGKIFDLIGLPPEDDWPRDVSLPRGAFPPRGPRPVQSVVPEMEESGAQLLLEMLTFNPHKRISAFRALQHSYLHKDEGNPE
Sequence of CDK4/Cyclin D1 (P24385 whole entry partner, species assumed): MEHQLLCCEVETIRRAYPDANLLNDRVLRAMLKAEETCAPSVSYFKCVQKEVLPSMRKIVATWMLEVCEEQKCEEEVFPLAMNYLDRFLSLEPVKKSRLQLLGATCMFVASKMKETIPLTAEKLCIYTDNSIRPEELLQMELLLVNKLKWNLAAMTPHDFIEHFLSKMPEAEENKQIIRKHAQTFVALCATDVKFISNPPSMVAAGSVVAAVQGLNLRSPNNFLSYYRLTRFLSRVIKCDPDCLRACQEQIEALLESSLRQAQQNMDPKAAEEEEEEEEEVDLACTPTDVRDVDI
Sequence of CDK9/cyclin T1 (P50750 whole entry): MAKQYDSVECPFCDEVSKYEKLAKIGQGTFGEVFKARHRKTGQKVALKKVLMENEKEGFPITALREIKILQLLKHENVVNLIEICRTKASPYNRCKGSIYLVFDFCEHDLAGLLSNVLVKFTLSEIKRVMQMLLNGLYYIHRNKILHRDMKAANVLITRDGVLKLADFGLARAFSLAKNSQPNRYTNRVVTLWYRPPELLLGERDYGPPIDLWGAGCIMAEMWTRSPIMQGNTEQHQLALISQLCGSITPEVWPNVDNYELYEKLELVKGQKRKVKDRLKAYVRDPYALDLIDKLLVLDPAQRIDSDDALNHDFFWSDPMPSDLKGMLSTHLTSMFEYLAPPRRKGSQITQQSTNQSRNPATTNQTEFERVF
Sequence of CDK9/cyclin T1 (O60563 whole entry partner): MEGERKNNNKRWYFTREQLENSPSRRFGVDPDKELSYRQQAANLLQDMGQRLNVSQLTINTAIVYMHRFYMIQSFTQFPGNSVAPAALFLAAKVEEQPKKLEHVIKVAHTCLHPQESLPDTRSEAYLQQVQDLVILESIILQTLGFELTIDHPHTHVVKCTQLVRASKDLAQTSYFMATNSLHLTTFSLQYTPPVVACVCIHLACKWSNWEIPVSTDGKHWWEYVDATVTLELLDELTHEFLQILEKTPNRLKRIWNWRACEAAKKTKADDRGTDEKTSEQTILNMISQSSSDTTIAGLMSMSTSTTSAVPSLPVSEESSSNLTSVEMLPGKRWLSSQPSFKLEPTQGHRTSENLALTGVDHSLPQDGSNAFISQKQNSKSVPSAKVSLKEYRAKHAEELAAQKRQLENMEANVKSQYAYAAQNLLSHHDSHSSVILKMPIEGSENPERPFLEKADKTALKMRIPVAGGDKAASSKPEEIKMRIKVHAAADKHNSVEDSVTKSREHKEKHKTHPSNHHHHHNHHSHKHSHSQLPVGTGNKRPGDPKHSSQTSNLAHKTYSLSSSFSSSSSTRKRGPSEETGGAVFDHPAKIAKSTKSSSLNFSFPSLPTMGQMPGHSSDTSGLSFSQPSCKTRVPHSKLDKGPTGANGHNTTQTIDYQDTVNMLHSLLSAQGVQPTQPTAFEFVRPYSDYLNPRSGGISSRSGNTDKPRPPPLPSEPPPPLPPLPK
Method for CDK1/Cyclin B: (§1) His-tagged CDK2/Cyclin E and CDK1/Cyclin B may be co-expressed and PKCα singularly expressed in Sf 9 insect cells infected with the appropriate baculovirus constructs. The cells are harvested two days after infection by low speed centrifugation and the proteins purified from the insect cell pellets by Metal-chelate chromatography. Briefly, the insect cell pellet is lysed in Buffer A (10 mM Tris-HCl, pH 8.0, 150 mM NaCl, 0.02% NP40 and 5 mM β-marcaptoethanol, 1 mM NaF. 1 mM Na3VO4 and Protease Inhibitors Coctail (Sigma) containing AEBSF, pepstatin A, E 64, bestatin, leupeptin) by sonication. The soluble fraction is cleared by centrifugation and loaded onto Ni-NTA-Agarose (Quiagen). Non bound proteins were washed off with 300 mM NaCl, 5-15 mM Imidazole in Buffer A and the bound proteins eluted with 250 mM Imidazole in Buffer A. The purified proteins are extensively dialyzed against Storage buffer (20 mM HEPES pH 7.4, 50 mM NaCl, 2 mM DTT, 1 mM EDTA, 1 mM EGTA, 0.02% NP40, 10% v/v Glycerol) aliquoted and stored at −70° C.
Method for CDK2/Cyclin E: as §1
Method for CDK2/cyclin A: Reactions were stopped on ice, followed by filtration through p81 filterplates (Whatman Polyfiltronics, Kent, UK). After washing 3 times with 75 mM orthophosphoric acid, plates were dried, scintillant added and incorporated radioactivity measured in a scintillation counter (TopCount, Packard Instruments, Pangboume, Berks, UK).

On to `Cc1nc(C)c(-c2ccnc(Nc3ccc(O)cc3)n2)s1` [Compound 28, 4-[4-(2,4-Dimethyl-thiazol-5-yl)-pyrimidin-2-ylamino]-phenol], for which the IC50 on CDK4/Cyclin D1 (setting [2]) turned out to be 600 nM; in the series on HIV-1RoJo/PBMC it was 280 nM; at CDK7/cyclin H (setting [3]) it was 2400 nM; at CDK2/Cyclin E (setting [4]), 280 nM; at CDK9/cyclin T1 (setting [5]), 460 nM; at CDK1/Cyclin B, 1800 nM. The “TI (therapeutic index: TC50/IC50)” value with HIV-1RoJo/PBMC is 80. The IC90 in the series on HIV-1RoJo/PBMC was determined as 21000 nM. Besides, the “anti-viral effectiveness as demonstrated by cell-based assays” value (“anti-viral effectiveness as demonstrated” below) with HIV-1 is “particularly effective anti-viral agents”. The midpoint of cytotoxicity in series [1] (HIV-1RoJo/PBMC), the CC50 at 7 days, lay at 22000 nM.

For `CNc1nc(C)c(-c2ccnc(Nc3cccc(O)c3)n2)s1` [Compound 70, 3-[4-(4-Methyl-2-methylamino-thiazol-5-yl)-pyrimidin-2-ylamino]-phenol], the “TI (therapeutic index: TC50/IC50)” value with HIV-1RoJo/PBMC is on record as 4.3. Moreover, the IC50 turned out to be 630 nM in the series with HIV-1RoJo/PBMC, 3400 nM on CDK7/cyclin H (setting [3]), 270 nM on CDK2/Cyclin E (setting [4]) and 48 nM at CDK9/cyclin T1 (setting [5]). For the same molecule, the IC90 in the series on HIV-1RoJo/PBMC was 2600 nM. Also, the “anti-viral effectiveness as demonstrated” value in the series on HIV-1 was “particularly effective anti-viral agents”. Moreover, half-maximal cytotoxicity in series [1] (HIV-1RoJo/PBMC) (CC50 at 7 days) was put at 2700 nM.

Consider `Cc1nc(C)c(-c2ccnc(Nc3ccc(N(C)C)cc3)n2)s1` [Compound 103, N,N-Dimethyl-N′-[4-(2,4-dimethyl-thiazol-5-yl)-pyrimidin-2-yl]-benzene-1,4-diamine], for which the IC50 on CDK7/cyclin H (setting [3]) came out at 11000 nM; at CDK9/cyclin T1 (setting [5]), 1800 nM; on CDK1/Cyclin B, 7300 nM. For the same molecule, the “anti-viral effectiveness as demonstrated” value in the series with HIV-1 is “particularly effective anti-viral agents”. Also, the 50% cytotoxic concentration (CC50) – broadly, the concentration giving 50% cytotoxicity – at 7 days in series [1] (HIV-1RoJo/PBMC) was greater than 100000 nM; in [1] (HIV-1WeJo/PBMC), 800 nM.

As for `CNc1nc(C)c(-c2ccnc(Nc3ccc(F)cc3)n2)s1` [Compound 47, (4-Fluoro-phenyl)-[4-(4-methyl-2-methylamino-thiazol-5-yl)-pyrimidin-2-yl]-amine], in the series with HIV-1RoJo/PBMC, the “TI (therapeutic index: TC50/IC50)” value is 34, the IC50 turned out to be 200 nM and the IC90 is 1200 nM. Also, the “anti-viral effectiveness as demonstrated” value with HIV-1 is recorded as “particularly effective anti-viral agents”. Further, the IC50 on CDK2/Cyclin E (setting [4]) came to 37 nM. Besides, the IC50 at CDK9/cyclin T1 (setting [5]) was 82 nM. The molecule further registered a CC50 at 7 days in series [1] (HIV-1RoJo/PBMC) of 6800 nM.

For `Cc1nc(N(C)C)sc1-c1ccnc(Nc2cccc([N+](=O)[O-])c2)n1` [Compound 140, [4-(2-Dimethylamino-4-methyl-thiazol-5-yl)-pyrimidin-2-yl]-(3-nitro-phenyl)-amine], the IC50 on CDK4/Cyclin D1 (setting [2]) is 105000 nM; on CDK2/cyclin A (setting [6]), 1800 nM; at CDK7/cyclin H (setting [3]) it was greater than 100000 nM; at CDK2/Cyclin E (setting [4]), 480 nM; on CDK9/cyclin T1 (setting [5]) it was 7100 nM; on CDK1/Cyclin B, 49000 nM.

Consider `Cc1nc(N)sc1-c1ccnc(Nc2ccc(CCO)cc2)n1` [Compound 118, 2-{4-[4-(2-Amino-4-methyl-thiazol-5-yl)-pyrimidin-2-ylamino]-phenyl}-ethanol], for which the IC50 is 820 nM at CDK4/Cyclin D1 (setting [2]); 420 nM on CDK2/cyclin A (setting [6]); 2800 nM on CDK7/cyclin H (setting [3]); 390 nM on CDK2/Cyclin E (setting [4]); 800 nM at CDK9/cyclin T1 (setting [5]); 1800 nM against CDK1/Cyclin B.

Take `Cc1c(-c2ccnc(Nc3cccc([N+](=O)[O-])c3)n2)sc(=O)n1C` [Compound 153, 3,4-Dimethyl-5-[2-(3-nitro-phenylamino)-pyrimidin-4-yl]-3H-thiazol-2-one]: the IC50 at CDK4/Cyclin D1 (setting [7]) was found to be 560 nM; on CDK2/cyclin A (setting [8]), 16 nM; at CDK7/cyclin H (setting [9]), 120 nM; at CDK2/Cyclin E (setting [10]), 610 nM; on CDK9/cyclin T1 (setting [11]), 2.2 nM; against CDK1/Cyclin B, 3000 nM.

Regarding `COc1ccc(Nc2nccc(-c3sc(C)nc3C)n2)cc1OC` [Compound 125, (3,4-Dimethoxy-phenyl)-[4-(2,4-dimethyl-thiazol-5-yl)-pyrimidin-2-yl]-amine], the IC50 on CDK4/Cyclin D1 (setting [2]) amounted to 1100 nM; on CDK2/cyclin A (setting [6]), 260 nM; in the series with HIV-1RoJo/PBMC it was 820 nM; at CDK7/cyclin H (setting [3]), 5900 nM; at CDK2/Cyclin E (setting [4]), 33 nM; on CDK9/cyclin T1 (setting [5]), 590 nM. Moreover, the IC50 on CDK1/Cyclin B is 250 nM. The “TI (therapeutic index: TC50/IC50)” value in the series on HIV-1RoJo/PBMC turned out to be 33. For the same molecule, in the series with HIV-1RoJo/PBMC, the IC90 was 970 nM. Besides, the “anti-viral effectiveness as demonstrated” value in the series on HIV-1 is listed as “particularly effective anti-viral agents”. Moreover, the CC50 at 7 days in series [1] (HIV-1RoJo/PBMC) came out at 27000 nM.

`CNc1nc(C)c(-c2ccnc(Nc3cccc(C(F)(F)F)c3)n2)s1` [Compound 75, [4-(4-Methyl-2-methylamino-thiazol-5-yl)-pyrimidin-2-yl]-(3-trifluoromethyl-phenyl)-amine]: the IC50 at CDK4/Cyclin D1 (setting [2]) was greater than 100000 nM; on CDK2/cyclin A (setting [6]), greater than 100000 nM; at CDK7/cyclin H (setting [3]), 19000 nM; on CDK2/Cyclin E (setting [4]), 770 nM; at CDK9/cyclin T1 (setting [5]) it was 8300 nM; against CDK1/Cyclin B, greater than 100000 nM.

For the molecule `Cc1ccc(Nc2nccc(-c3sc(=O)n(C)c3C)n2)cc1[N+](=O)[O-]` [Compound 163, 3,4-Dimethyl-5-[2-(4-methyl-3-nitro-phenylamino)-pyrimidin-4-yl]-3H-thiazol-2-one], the IC50 at CDK4/Cyclin D1 (setting [7]) worked out at 110 nM; on CDK2/cyclin A (setting [8]), 84 nM; at CDK7/cyclin H (setting [9]), 1.2 nM; at CDK2/Cyclin E (setting [10]) it was 36000 nM; at CDK9/cyclin T1 (setting [11]), 14 nM; at CDK1/Cyclin B, 96 nM.

Take `CCNc1nc(C)c(-c2ccnc(Nc3cccc([N+](=O)[O-])c3)n2)s1` [Compound 133, [4-(2-Ethylamino-4-methyl-thiazol-5-yl)-pyrimidin-2-yl]-(3-nitro-phenyl)-amine]: the IC50 was 4700 nM on CDK4/Cyclin D1 (setting [2]); 4200 nM at CDK2/cyclin A (setting [6]); 390 nM at CDK7/cyclin H (setting [3]); 88 nM on CDK2/Cyclin E (setting [4]); 210 nM on CDK9/cyclin T1 (setting [5]); greater than 100000 nM against CDK1/Cyclin B.

Turning to `Cc1nc(C)c(-c2ccnc(Nc3cccc(N)c3)n2)s1` [Compound 34, N-[4-(2,4-Dimethyl-thiazol-5-yl)-pyrimidin-2-yl]-benzene-1,3-diamine], the IC50 turned out to be 1700 nM at CDK4/Cyclin D1 (setting [2]); 530 nM at CDK2/cyclin A (setting [6]); 5200 nM on CDK7/cyclin H (setting [3]); 530 nM at CDK2/Cyclin E (setting [4]); 410 nM on CDK9/cyclin T1 (setting [5]); 1500 nM at CDK1/Cyclin B.
